Data taken from patent publication US20060211705A1, “'N-(2-chloro-6-methylphenyl)-2-[[6-[4-(2-hydroxyethyl)-1-piperazinyl]-2-methyl-4-pyrimidinyl]amino]-5-thiazolecarboxamides metabolites” (priority 2005, published 2006).

Legend:
[1] = Metabolite profile of [14C] compound (I) in rat liver microsome incubations; format: in vitro ADME, SD rat; conditions: (Ia) 20 μM, 15 min, 37° C., 2 mg/mL microsomal protein, 2.0 mM NADPH
Description: (§1) The compound of formula (I) was used as the [^14C] compound (Ia) (30.4 μCi/mg, radiochemical purity 99.2%), as the monohydrate of the free base. The C-14 label was on the carbon in the 2-position of the thiazole ring.
(§2) Freshly isolated rat hepatocyte preparations were prepared from one male Sprague-Dawley rat. Rat Hepatocytes were prepared according to a standard procedure (Seglen, PO. Preparation of isolated rat liver cells. Methods Cell Biol., 1976, 13: 29-83). Cryopreserved cynomolgus monkey hepatocytes (male, pooled, n=6) and human hepatocytes (3 individual preparation) were purchased from In Vitro Technologies (Baltimore, Md.). Microsomes from male SD Rats (pooled, n=200, 20 mg/mL) and male cynomolgus monkeys (pooled, n=8, 20 mg/mL) were obtained from Xenotech LLC, Kansas City, Kans. Human liver microsomes (male, pooled, n=38) were from BD-Gentest, Woburn, Mass.
(§3) A 6 mM stock solution of the compound of formula (Ia) (the [^14C] of the compound of formula (I) was prepared at by dissolving 3.7 mg of the compound of formula (Ia) into 1:1 acetonitrile/DMSO. The 2 mM stock solution of the compound of formula (Ia) was obtained by diluting an aliquot of the 6 mM stock solution 3-fold with acetonitrile.
(§4) Hepatocyte incubations were conducted at 37° C. for 3 h in a NAPCO CO2 6000 incubator (VWR Scientific Products) under a 5% CO2 atmosphere using an orbital shaker at 90 rpm. For each incubation, the final concentration of compound (Ia) was 20 μM and the hepatocyte concentrations were ˜2 million cells/mL. A control incubation, in the absence of hepatocytes, was also performed for 3 h. The incubations were stopped by adding one volume of ice-cold acetonitrile. Each 0.5 mL incubation contained 0.1 M potassium phosphate buffer (pH 7.4), 2.5 mM MgCl2, 2 mg/mL microsomal protein, and 2.0 mM NADPH. The final substrate concentration was 20 μM. The mixtures were incubated in a shaking water bath at 37° C. for 15 min. Control incubations in the absence of microsomes or NADPH were performed for each species. The reactions were stopped with the addition of 1 mL of ice-cold acetonitrile.
HPLC was performed on a Waters Alliance™ system equipped with Waters 2695 pumps and a photodiode array detector (Waters 2996). A Phenomenex Synergy Polar-RP® column (4.6×250 mm, 5 micron) was used for metabolite separation. All HPLC analyses were performed at 1 mL/min flow rate at room temperature. Two HPLC mobile phase and gradient systems were used because all metabolites could not be completely separated on either of the individual HPLC systems. The first system consisted of (A) water with 0.1% formic acid and (B) acetonitrile with 0.1% formic acid as mobile phase. The linear gradient was as follows: 0 min, 20% B; 1 min, 20% B; 41 min, 35% B; 42 min, 90% B; 44 min, 90% B. The column was re-equilibrated at 20% B for 6 min before the next injection. The second HPLC system was used to separate certain co-eluting metabolites that could not be separated by the first system. The mobile phase consisted of (A) water with 0.1% triflouroacetic acid (TFA) and (B) acetonitrile with 0.1% TFA. The gradient was as follows: 0 min, 20% B; 1 min, 20% B; 51 min, 35% B; 52 min, 90% B; 54 min 90% B. The column was equilibrated at 20% B for 6 min prior to the next injection.
On-line radioactivity detection (RAD) was conducted using an INUS β-RAM detector (Model 3, INUS, Tampa, Fla.). The β-RAM was operated with a 500 μL liquid flow cell in the homogeneous liquid scintillation counting mode. A flow rate of 2 mL/min of scintillation cocktail was mixed with the HPLC effluent. The effluent from HPLC was split to the β-RAM detector (90%) and the mass spectrometer (10%) by adjusting the length and diameter of post column tubings. The β-RAM detector provided integrated output detailing the percentage and amount of radioactivity under each radioactive peak.
Hepatocyte and liver microsomal incubations were quenched with acetonitrile and were vortex-mixed for 3 min. […]

[2] = Metabolite profile of [14C] compound (I) in rat hepatocyte incubations; format: in vitro ADME, Sprague-Dawley rat; conditions: (Ia) 20 μM, 3 h, 37° C., ~2 million cells/mL; relative distribution in radiochromatographic profile
Description: as §1, §2, §3
Rat hepatocyte suspensions were provided at concentrations of 9.1 million cells/mL with a viability of 90%. The cell suspension was diluted accordingly with modified Krebs-Henseleit buffer to give a final concentration of 2 million cells/mL.
Viability of the hepatocytes was checked using a Trypan Blue exclusion assay and a hemocytometer. A mixture of 0.1 mL of the hepatocyte suspension and 0.1 mL of trypan blue solution were diluted with 0.8 mL of Krebs-Henseleit buffer. The solution was gently mixed and plated onto a Levy hemocytometer (Hausser Scientific) and the viable cells (unstained) were counted under a light microscope. The viability of the hepatocytes ranged from 77% to 90% at the beginning of the incubations.
as §4
HPLC was performed on a Waters Alliance™ system equipped with Waters 2695 pumps and a photodiode array detector (Waters 2996). A Phenomenex Synergy Polar-RP® column (4.6×250 mm, 5 micron) was used for metabolite separation. All HPLC analyses were performed at 1 mL/min flow rate at room temperature. Two HPLC mobile phase and gradient systems were used because all metabolites could not be completely separated on either of the individual HPLC systems. The first system consisted of (A) water with 0.1% formic acid and (B) acetonitrile with 0.1% formic acid as mobile phase. The linear gradient was as follows: 0 min, 20% B; 1 min, 20% B; 41 min, 35% B; 42 min, 90% B; 44 min, 90% B. The column was re-equilibrated at 20% B for 6 min before the next injection. The second HPLC system was used to separate certain co-eluting metabolites that could not be separated by the first system. The mobile phase consisted of (A) water with 0.1% triflouroacetic acid (TFA) and (B) acetonitrile with 0.1% TFA. The gradient was as follows: 0 min, 20% B; 1 min, 20% B; 51 min, 35% B; 52 min, 90% B; 54 min 90% B. The column was equilibrated at 20% B for 6 min prior to the next injection. […]

| SMILES | % of Radioactivity in Microsomes, Rat [1] | % of Radioactivity in Hepatocytes, Rat [2] |
| --- | --- | --- |
| Cc1nc(Nc2ncc(C(=O)Nc3c(C)cccc3Cl)s2)cc(N2CCNCC2)n1 [M4 (II)] | 1.8% | 1.6% |
| Cc1nc(Nc2ncc(C(=O)Nc3c(C)cccc3Cl)s2)cc(N2CC[N+]([O-])(CCO)CC2)n1 [M5 (III)] | 37.3% | 2.7% |
| Cc1nc(Nc2ncc(C(=O)Nc3c(C)cccc3Cl)s2)cc(N2CCN(CC(=O)O)CC2)n1 [M6 (IV), 2-(4-(6-(5-((2-Chloro-6-methylphenyl)carbamoyl)thiazol-2-ylamino)-2-methylpyrimidin-4-yl)piperazin-1-yl)acetic acid] | 0.7% | 4.9% |

Now from value to compound:

| % of Radioactivity in Microsomes, Rat [1] | % of Radioactivity in Hepatocytes, Rat [2] | SMILES |
| --- | --- | --- |
| 4.5% | 1.1% | Cc1nc(Nc2ncc(C(=O)Nc3c(C)cc(O)cc3Cl)s2)cc(N2CCN(CCO)CC2)n1 [M20 (V)] |
| 4.5% | 1.1% | Cc1nc(Nc2ncc(C(=O)Nc3c(Cl)cccc3CO)s2)cc(N2CCN(CCO)CC2)n1 [M24 (VI), N-(2-chloro-6-(hydroxymethyl)phenyl)-2-(6-(4-(2-hydroxyethyl)piperazin-1-yl)-2-methylpyrimidin-4-ylamino)thiazole-5-carboxamide] |
| 54.2% | 88.8% | Cc1nc(Nc2ncc(C(=O)Nc3c(C)cccc3Cl)s2)cc(N2CCN(CCO)CC2)n1 [Parent (I), N-(2-Chloro-6-methylphenyl)-2-[[6-[4-(2-hydroxyethyl)-1-piperazinyl]-2-methyl-4-pyrimidinyl]amino]-5-thiazolecarboxamide] |
